The results in this text go back to patent US8466113B2, “4-isopropylphenyl glucitol compounds as SGLT1 inhibitors” (Taisho Pharmaceutical Co., Ltd., priority 2009, dated 2013).

Type in all cases: cell-based
Assay [1] concerns the target T1, human SGLT2 (Homo sapiens, UniProt P31639).
T1 construct: expressed in transfected cells; host or cells: CHO-K1
T1 sequence (P31639 1-672): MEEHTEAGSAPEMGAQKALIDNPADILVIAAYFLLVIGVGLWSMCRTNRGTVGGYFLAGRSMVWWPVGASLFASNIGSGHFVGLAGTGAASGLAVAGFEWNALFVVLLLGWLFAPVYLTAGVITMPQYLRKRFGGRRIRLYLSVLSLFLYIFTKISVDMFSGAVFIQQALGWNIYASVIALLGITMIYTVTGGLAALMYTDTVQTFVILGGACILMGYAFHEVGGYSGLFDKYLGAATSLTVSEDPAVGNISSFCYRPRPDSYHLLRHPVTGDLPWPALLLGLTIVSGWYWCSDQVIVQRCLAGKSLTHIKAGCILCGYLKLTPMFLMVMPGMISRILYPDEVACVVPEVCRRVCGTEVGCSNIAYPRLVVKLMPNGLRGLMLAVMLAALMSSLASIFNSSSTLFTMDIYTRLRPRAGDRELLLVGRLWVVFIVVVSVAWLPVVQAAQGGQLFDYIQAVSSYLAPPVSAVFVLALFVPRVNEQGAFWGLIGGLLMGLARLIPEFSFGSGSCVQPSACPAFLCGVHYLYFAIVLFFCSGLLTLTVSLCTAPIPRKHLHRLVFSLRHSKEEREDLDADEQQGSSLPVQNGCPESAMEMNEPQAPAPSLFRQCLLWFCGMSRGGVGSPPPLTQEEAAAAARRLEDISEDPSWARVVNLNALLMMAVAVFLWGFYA
Put plainly: Inhibition test for sodium-dependent sugar uptake in CHO-K1 cells stably expressing human SGLT2, Method B. As to conditions: uptake 37° C., 60 minutes, read-out: IC50 for hSGLT2 Method B. The procedure:
(§1) (2) Creation of CHO-K1 Cells Stably Expressing Human SGLT2
Method B: A plasmid vector expressing human SGLT2 protein was transfected into CHO-K1 cells using lipofectamine LTX (Invitrogen). The cells were cultured in the presence of 1000 μg/mL geneticin to select resistant strains, followed by screening in the system shown below using sugar uptake capacity as an indicator to obtain SGLT2-expressing cells.
(§2) (3) Inhibition Test for Sodium-Dependent Sugar Uptake in Stably Expressing Cells
(§3) The stably expressing cells prepared above were used in the following test.
(§4) Pretreatment buffer (140 mM choline chloride, 2 mM KCl, 1 mM CaCl2, 1 mM MgCl2, 10 mM HEPES/5 mM Tris, pH 7.4) was added in a volume of 200 μL to the cells stably expressing SGLT1 or 2 mL for Method A and 200 μL for Method B to the cells stably expressing SGLT2, followed by incubation for 20 minutes. The pretreatment buffer was removed and replaced by uptake buffer containing a test compound (1 mM methyl α-D-glucopyranoside (containing [^14C]methyl α-D-glucopyranoside), 140 mM NaCl, 2 mM KCl, 1 mM CaCl2, 1 mM MgCl2, 10 mM HEPES/5 mM Tris, pH 7.4) in a volume of 75 μL for SGLT1 and SGLT2 in Method B or 200 μL for SGLT2 in Method A. Uptake reaction was performed at 37° C. for 30 minutes (SGLT1) or 60 minutes (SGLT2). After the reaction, the cells were washed twice with washing buffer (10 mM methyl α-D-glucopyranoside, 140 mM choline chloride, 2 mM KCl, 1 mM CaCl2, 1 mM MgCl2, 10 mM HEPES/5 mM Tris, pH 7.4) in a volume of 200 μL for SGLT1 and SGLT2 in Method B or 2 mL for SGLT2 in Method A, and then dissolved in a 0.25 M NaOH solution (75 μL for SGLT1 and SGLT2 in Method B or 400 μL for SGLT2 in Method A). A liquid scintillator (Perkin Elmer) was added and mixed well with each sample, followed by measurement of radioactivity using a β-ray analyzer. For the control group, uptake buffer containing no test compound was prepared. Moreover, another uptake buffer containing choline chloride instead of NaCl was also prepared for basal uptake.
(§5) For determination of IC50 values, test compounds prepared at 6 appropriate concentrations were used and their concentrations required for 50% inhibition of the amount of sugar uptake (IC50 values) were calculated relative to the amount of sugar uptake in the control group (100%).

The target of assay [2] is T2, human SGLT2 protein modified to have LeuGluSerArgGlyProVal added to the carboxy-terminal final residue (Homo sapiens, UniProt P31639).
T2 construct: expressed in transfected cells; host or cells: CHO-K1
T2 sequence (P31639 with tags, fused parts or gaps): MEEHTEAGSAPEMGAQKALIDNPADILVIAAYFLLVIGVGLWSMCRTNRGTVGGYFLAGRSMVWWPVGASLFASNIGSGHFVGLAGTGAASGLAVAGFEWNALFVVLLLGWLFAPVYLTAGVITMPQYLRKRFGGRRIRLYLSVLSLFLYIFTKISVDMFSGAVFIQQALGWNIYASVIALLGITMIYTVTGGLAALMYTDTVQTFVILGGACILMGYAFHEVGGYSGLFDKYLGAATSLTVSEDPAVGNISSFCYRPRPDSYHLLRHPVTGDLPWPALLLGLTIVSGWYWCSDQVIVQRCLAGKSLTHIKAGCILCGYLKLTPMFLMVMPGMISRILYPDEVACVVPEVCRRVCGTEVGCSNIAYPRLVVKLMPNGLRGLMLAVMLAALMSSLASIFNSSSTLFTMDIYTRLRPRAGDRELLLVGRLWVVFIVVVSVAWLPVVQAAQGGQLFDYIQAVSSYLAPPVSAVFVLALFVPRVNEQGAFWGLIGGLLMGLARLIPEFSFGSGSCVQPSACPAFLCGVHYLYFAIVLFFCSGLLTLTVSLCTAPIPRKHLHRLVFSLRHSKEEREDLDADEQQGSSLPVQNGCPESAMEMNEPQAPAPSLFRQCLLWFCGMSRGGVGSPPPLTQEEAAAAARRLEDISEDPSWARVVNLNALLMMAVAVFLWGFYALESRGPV
Description: Inhibition test for sodium-dependent sugar uptake in CHO-K1 cells stably expressing human SGLT2, Method A. As to conditions: uptake 37° C., 60 minutes, read-out: IC50 for hSGLT2 Method A. The procedure: as §1
Method A (described in WO2007/136116): A plasmid vector expressing human SGLT2 protein modified to have LeuGluSerArgGlyProVal added to the carboxy-terminal final residue was transfected into CHO-K1 cells using lipofectamine 2000 (Invitrogen). The cells were cultured in the presence of 500 μg/mL hygromycin B to select resistant strains, followed by screening in the system shown below using sugar uptake capacity as an indicator to obtain SGLT2-expressing cells.
as §2, §3, §4, §5

Assay [3] has as its target T3, human SGLT1 (Homo sapiens, UniProt P13866).
T3 construct: expressed in transfected cells; host or cells: CHO-K1
T3 sequence (P13866 1-664): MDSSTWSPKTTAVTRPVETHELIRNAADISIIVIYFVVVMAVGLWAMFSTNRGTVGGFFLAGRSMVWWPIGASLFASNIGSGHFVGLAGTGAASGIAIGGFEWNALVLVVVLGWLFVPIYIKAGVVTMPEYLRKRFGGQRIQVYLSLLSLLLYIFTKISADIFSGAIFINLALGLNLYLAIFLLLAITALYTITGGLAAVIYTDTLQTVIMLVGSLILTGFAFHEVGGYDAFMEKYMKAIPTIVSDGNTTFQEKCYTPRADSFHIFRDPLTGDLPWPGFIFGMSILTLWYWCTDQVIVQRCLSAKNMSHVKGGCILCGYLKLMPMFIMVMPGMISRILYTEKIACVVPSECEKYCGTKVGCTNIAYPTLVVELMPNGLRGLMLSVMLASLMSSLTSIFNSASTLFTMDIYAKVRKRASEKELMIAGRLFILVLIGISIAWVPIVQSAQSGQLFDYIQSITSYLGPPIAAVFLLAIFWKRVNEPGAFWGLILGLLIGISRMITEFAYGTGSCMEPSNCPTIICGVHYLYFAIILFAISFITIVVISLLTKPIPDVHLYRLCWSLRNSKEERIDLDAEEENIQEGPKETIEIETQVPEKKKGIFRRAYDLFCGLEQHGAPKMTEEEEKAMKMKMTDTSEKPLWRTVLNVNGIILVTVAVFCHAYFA
Description: Inhibition test for sodium-dependent sugar uptake in CHO-K1 cells stably expressing human SGLT1. The conditions noted are these: [14C]methyl α-D-glucopyranoside uptake, 37° C., 30 minutes, read-out: IC50 for hSGLT1. Here is the method: (1) Creation of CHO-K1 Cells Stably Expressing Human SGLT1
A plasmid vector expressing human SGLT1 protein was transfected into CHO-K1 cells using lipofectamine 2000 (Invitrogen). The cells were cultured in the presence of 500 μg/mL geneticin to select resistant strains, followed by screening in the system shown below using sugar uptake capacity as an indicator to obtain SGLT1-expressing cells.
as §2, §3, §4, §5

Consider `Cc1cc(/C=C/C(C)(C)C(=O)NC(C)(C)C(=O)N2CCNCC2)ccc1Cc1cc([C@@H]2O[C@H](CO)[C@@H](O)[C@H](O)[C@H]2O)c(O)cc1C(C)C` [Example 2-2], for which the IC50 was found to be 28 nM in assay [1], 971 nM in assay [2] and 30 nM in assay [3].

In the case of `Cc1cc(/C=C/C(C)(C)C(=O)NC(C)(C)C(=O)N2CCN(C)CC2)ccc1Cc1cc([C@@H]2O[C@H](CO)[C@@H](O)[C@H](O)[C@H]2O)c(O)cc1C(C)C` [Example 3-2], the IC50 in assay [1] came out at 81 nM; in assay [2], 1720 nM; in assay [3] it was 35 nM.

On to `CCN1CCN(C(=O)C(C)(C)NC(=O)C(C)(C)/C=C/c2ccc(Cc3cc([C@@H]4O[C@H](CO)[C@@H](O)[C@H](O)[C@H]4O)c(O)cc3C(C)C)c(C)c2)CC1` [Example 4-2], for which the results for the IC50 in assay [1], in assay [2] and in assay [3] were 76 nM, 1640 nM and 46 nM, respectively.

As for `COc1cc(C(C)C)c(Cc2ccc(/C=C/C(C)(C)C(=O)NC(C)(C)C(=O)NCCN(C)C)cc2C)cc1[C@@H]1O[C@H](CO)[C@@H](O)[C@H](O)[C@H]1O` [Example 7-2], the half-maximal inhibitory concentration (IC50) in assay [2] is 11100 nM; in assay [3], 46 nM.

On to `COc1cc(C(C)C)c(Cc2ccc(/C=C/C(C)(C)C(=O)NC(C)(C)C(=O)NCCN)cc2C)cc1[C@@H]1O[C@H](CO)[C@@H](O)[C@H](O)[C@H]1O` [Example 8-3], for which the IC50 turned out to be 476 nM in assay [1], 15700 nM in assay [2] and 50 nM in assay [3].

Regarding `COc1cc(C(C)C)c(Cc2ccc(/C=C/C(C)(C)C(=O)NC(C)(C)C(=O)N3CCNCC3)cc2C)cc1[C@@H]1O[C@H](CO)[C@@H](O)[C@H](O)[C@H]1O` [Example 9-2], the results for the IC50 in assay [1], in assay [2] and in assay [3] were 200 nM, 7230 nM and 34 nM, respectively.

Take `COc1cc(C(C)C)c(Cc2ccc(/C=C/C(C)(C)C(=O)NC(C)(C)C(=O)N3CCN(C)CC3)cc2C)cc1[C@@H]1O[C@H](CO)[C@@H](O)[C@H](O)[C@H]1O` [Example 10-2]: the IC50 in assay [1] turned out to be 281 nM; in assay [2], 14900 nM; in assay [3] it was 55 nM.

On to `CCN1CCN(C(=O)C(C)(C)NC(=O)C(C)(C)/C=C/c2ccc(Cc3cc([C@@H]4O[C@H](CO)[C@@H](O)[C@H](O)[C@H]4O)c(OC)cc3C(C)C)c(C)c2)CC1` [Example 11-2], for which the IC50 came to 546 nM in assay [1], 9750 nM in assay [2] and 59 nM in assay [3].

Regarding `COc1cc(C(C)C)c(Cc2ccc(/C=C/C(C)(C)C(=O)NC(C)(C)C(=O)N3CCC(N(C)C)CC3)cc2C)cc1[C@@H]1O[C@H](CO)[C@@H](O)[C@H](O)[C@H]1O` [Example 12-2], the 50% inhibitory concentration (IC50) in assay [1] was 113 nM; in assay [2], 4950 nM; in assay [3], 70 nM.

For `COc1cc(C(C)C)c(Cc2ccc(/C=C/C(C)(C)C(=O)NC(C)(C)C(=O)NC3CCNCC3)cc2C)cc1[C@@H]1O[C@H](CO)[C@@H](O)[C@H](O)[C@H]1O` [Example 14-2], the IC50 is 82 nM in assay [1], 2390 nM in assay [2] and 72 nM in assay [3].

As for `COc1cc(C(C)C)c(Cc2ccc(/C=C/C(C)(C)C(=O)NC(C)(C)C(=O)N3CCNCC3)cc2)cc1[C@@H]1O[C@H](CO)[C@@H](O)[C@H](O)[C@H]1O` [Example 16-2], the 50% inhibitory concentration (IC50) was determined as 17 nM in assay [1], 1020 nM in assay [2] and 38 nM in assay [3].

Regarding `COc1cc(C(C)C)c(Cc2ccc(/C=C/C(C)(C)C(=O)NC(C)(C)C(=O)N3CCN(C)CC3)cc2)cc1[C@@H]1O[C@H](CO)[C@@H](O)[C@H](O)[C@H]1O` [Example 17-2], the figures for the concentration for half-maximal inhibition (IC50) in assay [1], in assay [2] and in assay [3] were 26 nM, 979 nM and 42 nM, respectively.
